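Grown in 96-well plates, cells were treated for 48 hours with each compound at five concentrations. Insufficient inhibition: endpoint recorded as highest concentration tested. At the GI50, growth is halved.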 Calls of active or inactive are those of the source. No stated cut-off is given here; in the data, active = GI50 up to about 1.1 µM and inactive = higher.
Tests used:
Experiment in all cases: NCI anticancer screen, dose series, 48 h
[1] = tested on: HL-60
[2] = tested on: MOLT-4
[3] = tested on: EKVX
[4] = tested on: K562
[5] = tested on: NCI-H226
[6] = tested on: HT-29
[7] = tested on: 786-0
[8] = tested on: SF-539
[9] = tested on: Malme-3M
[10] = tested on: NCI-H23
[11] = tested on: RPMI-8226
[12] = tested on: TK-10
[13] = tested on: SK-MEL-5
[14] = tested on: HOP-92
[15] = tested on: SNB-75
[16] = tested on: RXF 393
[17] = tested on: CAKI-1
[18] = tested on: OVCAR-3

Measured: GI50

CCOC(=O)C(=C=Cc1cccs1)C(=O)c1ccccc1
inactive: [1] 24.6 µM | [2] 19.2 µM | [3] 16.7 µM | [4] 37.4 µM | [5] 15 µM | [6] 19.4 µM | [7] 16 µM | [8] 16.5 µM | [9] 15.7 µM | [10] 15.4 µM | [11] 18.3 µM | [12] 15 µM | [13] 3.38 µM | [14] 5.15 µM | [15] 15.8 µM

COc1ccc(Nc2nc3c(N)cc(C(F)(F)F)cc3nc2-c2ccccc2)cc1
inactive: [1] 16.9 µM | [2] > 100 µM | [3] 61.9 µM | [4] > 100 µM | [5] 68.9 µM | [16] 27.2 µM | [7] 35.6 µM | [8] > 100 µM | [9] 78.3 µM | [10] 69.7 µM | [12] > 100 µM | [13] 57.1 µM | [17] > 100 µM | [18] 33.6 µM | [14] 37.6 µM | [15] 28.8 µM

C=CCc1cc(-c2cc(CC=C)c(O)c(CNC)c2)cc(CNC)c1O
inactive: [1] 14.9 µM | [2] 10.9 µM | [4] 10.4 µM | [5] 16.9 µM | [6] 15.3 µM | [7] 15.5 µM | [9] 18.7 µM | [10] 15.8 µM | [11] 20.7 µM | [12] 17.7 µM | [13] 16.1 µM | [18] 14.7 µM | [14] 11.1 µM | [15] 11 µM

COc1ccc(/C=N/N=C(\N)NO)cc1O
inactive: [2] > 100 µM | [3] 29.3 µM | [4] 82.8 µM | [5] 33.4 µM | [6] 40.9 µM | [16] 41.7 µM | [7] 18.5 µM | [8] 31.2 µM | [9] 16.6 µM | [10] 31.9 µM | [11] > 100 µM | [13] 31.9 µM | [17] 48.2 µM | [14] 20.6 µM

N#CC1CC2(C(=O)C1=O)c1ccccc1-c1ccccc12 (stereo not given)
inactive: [1] > 100 µM | [2] > 100 µM | [3] > 100 µM | [4] 86.1 µM | [5] > 100 µM | [6] > 100 µM | [16] > 100 µM | [7] > 100 µM | [9] > 100 µM | [10] > 100 µM | [12] > 100 µM | [13] > 100 µM | [17] > 100 µM | [18] 87.7 µM | [15] > 100 µM

C=Cc1c(-c2ccccc2)cnc2[nH]c3ccccc3c12
inactive: [1] > 50 µM | [2] > 50 µM | [3] 3.4 µM | [4] > 50 µM | [6] > 50 µM | [16] > 50 µM | [7] > 50 µM | [9] > 50 µM | [10] > 50 µM | [11] > 50 µM | [12] > 50 µM | [13] > 50 µM | [17] > 50 µM | [18] > 50 µM | [15] 6.59 µM

O=C1CSC(/C(=C/c2ccccc2)c2nc3ccccc3[nH]2)=N1
inactive: [1] 71.9 µM | [2] > 100 µM | [3] > 100 µM | [4] > 100 µM | [5] 7.55 µM | [6] 73.6 µM | [7] 65.2 µM | [8] 23.6 µM | [9] 60.5 µM | [10] 28.1 µM | [12] > 100 µM | [13] 19.7 µM | [17] > 100 µM | [18] > 10 µM | [14] 61.4 µM | [15] 14.2 µM

C/C(=N/Nc1ccc([N+](=O)[O-])cc1[N+](=O)[O-])C(CC(C(=O)Nc1ccccc1C)/C(C)=N\Nc1ccc([N+](=O)[O-])cc1[N+](=O)[O-])C(=O)Nc1ccccc1C (stereo not given)
inactive: [1] 1.19 µM | [3] 18.2 µM | [4] > 100 µM | [5] 6.65 µM | [6] 14.8 µM | [16] 6.49 µM | [7] 17.9 µM | [8] 13 µM | [9] 22.5 µM | [10] 11.3 µM | [11] > 35 µM | [12] 17.9 µM | [13] 17.2 µM | [17] 14.2 µM | [18] 7.06 µM | [14] 7.08 µM | [15] 10.1 µM

N#CCC(=O)N1CCCCCCC1
inactive: [1] 28.2 µM | [3] > 100 µM | [4] > 100 µM | [6] 29.6 µM | [16] > 100 µM | [7] > 100 µM | [8] > 100 µM | [9] > 100 µM | [10] > 100 µM | [12] > 100 µM | [13] > 100 µM | [17] > 100 µM

O=C(COC(=O)c1cccc2c(=O)c3ccccc3[nH]c12)Nc1ccc(Cl)cc1
inactive: [1] 11.6 µM | [2] 26.3 µM | [3] 8.28 µM | [4] > 100 µM | [5] 72.8 µM | [6] 67.9 µM | [16] 16.8 µM | [7] 23.1 µM | [8] 26.1 µM | [9] > 100 µM | [10] 18.8 µM | [12] 13.1 µM | [13] 44.2 µM | [17] > 100 µM | [18] > 100 µM | [14] 58.9 µM | [15] 24.3 µM

O=C(NC12CC3CC(CC(F)(C3)C1)C2)c1ccccc1
inactive: [1] > 100 µM | [2] > 100 µM | [3] > 100 µM | [4] > 100 µM | [6] > 100 µM | [16] > 100 µM | [7] > 100 µM | [8] > 100 µM | [9] > 100 µM | [10] > 100 µM | [11] > 100 µM | [12] > 100 µM | [18] > 100 µM | [14] > 100 µM | [15] 43.9 µM

COc1ccc(C(=O)C/C(=N/NC(N)=S)C(=O)Nc2ccccc2)cc1
inactive: [1] > 100 µM | [2] > 100 µM | [3] > 100 µM | [4] > 100 µM | [5] > 100 µM | [6] > 100 µM | [16] > 100 µM | [7] > 100 µM | [8] > 100 µM | [9] > 100 µM | [10] > 100 µM | [11] > 100 µM | [12] > 100 µM | [13] > 100 µM | [17] > 100 µM | [18] > 100 µM | [15] 99.3 µM

COC(=O)C1=C(C)C(=O)[C@H]2C(C(=O)OC)CCCC[C@@H]12 (stereo not given in full)
inactive: [1] 30.2 µM | [2] 54.6 µM | [3] > 100 µM | [4] 55.8 µM | [5] > 100 µM | [6] > 100 µM | [16] > 100 µM | [7] > 100 µM | [8] > 100 µM | [9] > 100 µM | [10] > 100 µM | [11] 66.2 µM | [12] > 100 µM | [13] 72.9 µM | [17] > 100 µM | [14] 32.3 µM | [15] > 100 µM

Reference: ChEMBL document CHEMBL1201862, “PubChem BioAssay data set” (2004)
